Entries after “also recorded” stand apart in the source; their conditions may differ.
What was measured:
[1] = tested on: B6 mice; assay: Fatty liver in B6 mice raised 20 weeks on high fat/high sugar diet; format: in vivo, mouse; details: high fat/high sugar diet + 5% EPA-E, free feeding, 20 weeks (group III)
Excerpt: B6 mice (10 week old) were divided into control group (I), HF-HS group (II), and EPA group (III) (n=7 to 10), and the mice were raised for 20 weeks by free feeding of the following diet.

[2] = tested on: second factor group genes in the liver; assay: Gene microarray analysis of the liver of mice on high fat/high sugar diet; format: in vivo, mouse; details: EPA group vs HF-HS group, 20 weeks
Excerpt: (2) Next, expression of genes in the liver was compared in 3 groups, namely, the control group fed with normal diet, the HF-HS group, and the EPA group. […] (A) HF-HS group/control group ≧2 and EPA group/HF-HS group ≦0.5. (B) HF-HS group/control group ≦0.5 and EPA group/HF-HS group ≧2. Liver was extirpated from the mice of each group, and RNA was extracted by homogenization to conduct gene microarray analysis of the liver. The genes were selected as described below. (1) Genes with group II/group I expression ratio of 2 or higher and group III/group II expression ratio of up to 1/2 were selected. (2) Genes with the group II/group I expression ratio of up to 1/2 and the group III/group II ratio of 2 or more were selected. […] (4) Genes which are (1) but not (3) were selected. (5) Genes which are (2) but not (3) were selected. Next, factors with the possibility of protein secretion into blood were selected from the genes (4), and then, genes satisfying any of relevance with lipid metabolism, relevance with inflammation, increase of expression in the liver of SREBP transgenic mouse were selected from these genes. Genes were selected from the genes (5) by conducting the procedure corresponding to (6).

[3] = tested on: NASH model rats; details: telmisartan administered for 10 weeks; cited from earlier work

Row | SMILES | fatty liver [1] | group III/group II expression ratio, second factor (A) group genes ([2]; genes with group II/group I ratio of 2 or higher (Table 2)) | group III/group II expression ratio, second factor (B) group genes ([2]; genes with group II/group I ratio of up to 1/2 (Table 3)) | expression of TIMP1 and TIMP2 mRNAs in the liver tissue [3] | liver fibrosis [3]
1 | CC/C=C\C/C=C\C/C=C\C/C=C\C/C=C\CCCC(=O)OCC [EPA-E, ethyl icosapentate] | fatty liver was not observed; also recorded: fatty liver was not induced | up to 1/2 | ≥ 2 |  | 
2 | CCCc1nc2c(C)cc(-c3nc4ccccc4n3C)cc2n1Cc1ccc(-c2ccccc2C(=O)O)cc1 [telmisartan] |  |  |  | decrease | suppression; also recorded: suppressed

Source: US9060981B2, “Marker associated with non-alcoholic steatohepatitis” (MOCHIDA PHARMACEUTICAL CO., LTD., priority 2009, dated 2015)
